Assay results taken from the NIST ThermoML archive (doi:10.1021/je6005168).
Numbers after ± are expanded uncertainties.

Experiment: molar heat capacity at constant pressure
Conditions: 101.33 kPa, Crystal, Small sample (50 mg) DSC

Nc1c[nH]c(=O)[nH]c1=O [2,4(1H,3H)-pyrimidinedione, 5-amino-]
molar heat capacity at constant pressure (298.15 K): 145 ± 2.9 J/K/mol
molar heat capacity at constant pressure (303.15 K): 145.5 ± 2.9 J/K/mol
molar heat capacity at constant pressure (308.15 K): 146.2 ± 2.9 J/K/mol
molar heat capacity at constant pressure (313.15 K): 147 ± 2.9 J/K/mol
molar heat capacity at constant pressure (318.15 K): 148 ± 3 J/K/mol
molar heat capacity at constant pressure (323.15 K): 148.4 ± 3 J/K/mol
molar heat capacity at constant pressure (328.15 K): 149.1 ± 3 J/K/mol
molar heat capacity at constant pressure (333.15 K): 150 ± 3 J/K/mol
molar heat capacity at constant pressure (338.15 K): 150.6 ± 3 J/K/mol
molar heat capacity at constant pressure (343.15 K): 151.3 ± 3 J/K/mol

Cn1c(N)cc(=O)n(C)c1=O [6-amino-1,3-dimethyluracil]
molar heat capacity at constant pressure (298.15 K): 189 ± 3.8 J/K/mol
molar heat capacity at constant pressure (303.15 K): 191 ± 3.8 J/K/mol
molar heat capacity at constant pressure (308.15 K): 193.1 ± 3.9 J/K/mol
molar heat capacity at constant pressure (313.15 K): 195.2 ± 3.9 J/K/mol
molar heat capacity at constant pressure (318.15 K): 197.3 ± 3.9 J/K/mol
molar heat capacity at constant pressure (323.15 K): 199.5 ± 4 J/K/mol
molar heat capacity at constant pressure (328.15 K): 201.6 ± 4 J/K/mol
molar heat capacity at constant pressure (333.15 K): 204 ± 4.1 J/K/mol
molar heat capacity at constant pressure (338.15 K): 206 ± 4.1 J/K/mol
molar heat capacity at constant pressure (343.15 K): 208 ± 4.2 J/K/mol

Cn1c(N)cc(=O)[nH]c1=O [6-amino-1-methyluracil]
molar heat capacity at constant pressure (298.15 K): 166.2 ± 3.3 J/K/mol
molar heat capacity at constant pressure (303.15 K): 167 ± 3.3 J/K/mol
molar heat capacity at constant pressure (308.15 K): 168 ± 3.4 J/K/mol
molar heat capacity at constant pressure (313.15 K): 168.5 ± 3.4 J/K/mol
molar heat capacity at constant pressure (318.15 K): 169.2 ± 3.4 J/K/mol
molar heat capacity at constant pressure (323.15 K): 170 ± 3.4 J/K/mol
molar heat capacity at constant pressure (328.15 K): 171 ± 3.4 J/K/mol
molar heat capacity at constant pressure (333.15 K): 171.4 ± 3.4 J/K/mol
molar heat capacity at constant pressure (338.15 K): 172.2 ± 3.4 J/K/mol
molar heat capacity at constant pressure (343.15 K): 173 ± 3.5 J/K/mol

Nc1cc(O)nc(O)n1 [6-aminouracil]
molar heat capacity at constant pressure (298.15 K): 147 ± 2.9 J/K/mol
molar heat capacity at constant pressure (303.15 K): 147.6 ± 3 J/K/mol
molar heat capacity at constant pressure (308.15 K): 148.2 ± 3 J/K/mol
molar heat capacity at constant pressure (313.15 K): 149 ± 3 J/K/mol
molar heat capacity at constant pressure (318.15 K): 149.6 ± 3 J/K/mol
molar heat capacity at constant pressure (323.15 K): 150.3 ± 3 J/K/mol
molar heat capacity at constant pressure (328.15 K): 151 ± 3 J/K/mol
molar heat capacity at constant pressure (333.15 K): 151.6 ± 3 J/K/mol
molar heat capacity at constant pressure (338.15 K): 152.3 ± 3 J/K/mol
molar heat capacity at constant pressure (343.15 K): 153 ± 3.1 J/K/mol
